Measurements from patent US6642214B1, “Detoxication of active pharmaceutical substances using cyclodextrine oligomers” (CeramOptec Industries, Inc., priority 1997, dated 2003).

How the values were obtained:
[1] = Affinity constants of β-cyclodextrin dimers/trimers for guest compounds (competition with TNS, fluorescence spectroscopy); assay type: binding
Procedure: Binding constants can be determined in competition with 6-(p-toluidino)-2-naphthalenesulfonic acid (TNS). The measurement is performed by fluorescence spectroscopy according to Ruebner et al. (loc. cit.).
Due to the cyclodextrins being bonded on the secondary side, the cavities of the cyclodextrins are oriented towards each other. The cyclodextrins are preferably β-cyclodextrins. The distance between the cyclodextrin units is determined by selecting the spacer. Depending on the size of the compound to be enclosed, the spacer is selected such that the distance between the at least two cavities approximately matches the distance between two hydro-phobic groups of the pharmaceutically active substance. Preferred spacings are within a range of about 0.6 to 2 nm, more preferably in a range of about 0.8, 1.0, 1.2, 1.4, 1.6 and 1.8 nm.
Such rigid spacers can also be achieved by the use of appropriately functionalized (hetero)aromatics. For example, rigid spacers prevent too high a conformational flexibility, such as twisting of the two cyclodextrins involved in the binding. […] By the use of rigid spacers, affinity constants within a range of greater than 10^6, preferably greater than 10^7 and more preferably greater than 10^8 l/mol are achieved. Thus, rigid spacers are those which achieve correspondingly high stability constants of the complexes together with cyclodextrins involved in the binding and appropriate guest compounds.

[2] = Complex binding constant in competitive reaction with toluidinonaphthalenesulfonic acid; conditions: guest paclitaxel; competition with toluidinonaphthalenesulfonic acid; read-out: complex binding constant Ktaxol
Procedure: 250 mg (100 μmol) of the CD dimer di-β-CD(2N-A4C5A4) (see FIG. 5) was dissolved in 1 l of aqueous buffer (pH 7.35, Hepes 25 mM) at 60° C. and kept at this temperature with vigorous stirring. 8.5 mg of paclitaxel (10 μmol) was dissolved in 1 ml of dimethyl sulfoxide and added dropwise to the mixture with vigorous stirring. The mixture was kept at 60° C. for 24 hours with stirring, followed by cooling and freeze-drying the mixture.

[3] = spacer length 15-16 Å, guests paclitaxel, docetaxel

di-β-CD(—NH—(C2H4)—SH-[6-(β,γ)-CD-6]-SH—(C2H4)—NH—)
Affinity constant, measured/estimated [1, 3]: 3 · 10^9 (trimer) l/mol

di-β-CD(—NH—(C4H8)—NHCO—(C3H6)—CONH—(C4H8)—NH—) [A4C5A4]
Kd [2]: 1400 nM | Affinity constant, measured/estimated [1, 3]: 10^7 (dimer)- l/mol

di-β-CD(—NH—(C8H16)—NH—) [octyl-α,ω-diamide]
Affinity constant, measured/estimated ([1]; spacer length 7-8 Å, guests 3^1,8^1-(di-t-butylphenoxy)-porphyrinoids, (tamoxifene), phenytoin): 10^6-10^7 l/mol

di-β-CD(—NH—(C2H4)—SH—[6-α-CD-6]—SH—(C2H4)—NH—)
Affinity constant, measured/estimated ([1]; spacer length 13-14 Å, guests vinblastin, vincristin): ˜10^8 l/mol

di-β-CD(—NH—(C3H6)—NHCO—(C3H6)—CONH—(C3H6)—NH—) [A3C5A3]
Affinity constant, measured/estimated ([1]; spacer length 11-12 Å, guests colchicine, colchemide): 10^6-10^7 l/mol
